# In PMC11322497 (Frontiers in Pharmacology, 2024):
# What was measured:
# [1] = Plasma and liver selvigaltin concentrations after 4 weeks of treatment; type: in vivo; conditions: New Zealand White, rabbit, oral, HFD rabbits, 0.3, 1.0, 5.0 mg/kg, read-out: increased levels in liver tissue vs plasma
# Description: (§1) After 1 week (W) of RD, the animals (n = 44) were randomly assigned to the following groups (Table 1B): • Control rabbits continued to receive a RD for 12 weeks and were treated with vehicle for 5 days a week (days 1–5, p.o.) during the last 4 weeks before culling (RD + 4W Veh group); • Rabbits received a HFD for 8 weeks and were culled (HFD 8W group); • Rabbits received a HFD for 12 weeks and were treated with vehicle for 5 days a week (days 1–5, p.o.) during the last 4 weeks before culling (HFD+4W Veh group); • Rabbits received a HFD for 12 weeks and were treated with GB1211 (0.3 mg/kg) for 5 days a week (days 1–5, p.o.) during the last 4 weeks before culling (HFD + 4W 0.3 mg group); • Rabbits received a HFD for 12 weeks and were treated with GB1211 (1.0 mg/kg) for 5 days a week (days 1–5, p.o.) during the last 4 weeks before culling (HFD + 4W 1.0 mg group); • Rabbits received a HFD for 12 weeks and were treated with GB1211 (5.0 mg/kg) for 5 days a week (days 1–5, p.o.) during the last 4 weeks before culling (HFD + 4W 5.0 mg group).
# Liver homogenates were prepared by homogenisation of 200 mg liver tissue/ml water using a Fisherbrand™ Homogenizer 150 (Thermo Fisher Scientific, Waltham, MA). […]
# [2] = tested on: high fat diet (HFD) rabbit model of metabolic-associated steatohepatitis (MASH); experiment: HFD rabbit study, prolonged 4-week treatment: fibrosis and inflammation markers mRNA expression; type: in vivo, New Zealand White rabbits; conditions: HFD rabbits, weeks 9–12, mean±SD, n=7
# Description: as §1
# TRIzol reagent (Life Technologies, Paisley, United Kingdom) and/or RNeasy Mini Kit (Qiagen, Hilden, Germany) were used to isolate total RNA from rabbit liver specimens. RNA concentration and quality were measured using a Nanodrop ND-1000 (Thermo Fisher Scientific) at 260 nm and 280 nm. The OD 260/280 absorbance ratios were between 2.0 and 2.1 for all samples, to confirm RNA integrity and purification. cDNA synthesis was carried out using the iScript™ cDNA Synthesis Kit (Bio-Rad Laboratories, Hercules, CA), with 100 ng of mRNA in 20 µL reaction volume in accordance with the following protocol: 5 min at 25°C, 20 min at 46°C and 5 min at 85°C, followed by refrigeration at 4°C.
# Semi-quantitative real-time RT-PCR (qRT-PCR) amplification and detection was performed with SsoAdvanced™ universal SYBR® Supermix and a CFX96 Two-Color Real-Time PCR Detection System (both Bio-Rad Laboratories) with the following thermal cycler conditions: 40 cycles at 95°C for 15 s and 60°C for 1 min. Specific PCR primers for rabbit target genes were designed on sequences available at the National Center for Biotechnology Information GenBank (http://www.ncbi.nlm.nih.gov) or Ensemble Genome (http://www.ensembl.org).
# The 18S ribosomal RNA subunit was quantified with a predeveloped assay (Hs99999901_s1, Life Technologies) and used as the housekeeping gene for the relative quantitation of the target genes based on the comparative threshold cycle (Ct) 2^−ΔΔCt method ([Livak and Schmittgen, 2001]), with some modifications. In detail, we used the vehicle control groups as the calibrator in each analysis, so that the calculations would provide the fold-change of the other groups relative to controls.
smiles,measurement,setting,value
OC[C@H]1O[C@H](Sc2cncc(Br)c2)[C@H](O)[C@@H](n2cc(-c3cc(F)c(F)c(F)c3)nn2)[C@H]1O [selvigaltin],Kp at 4 weeks,[1],50 to 60
same,CD4 liver mRNA expression,[2]; 0.3 mg/kg p.o.,1.96 ± 0.51 fold-change vs. RD+Veh
same,COL1A1 liver mRNA expression,[2]; 0.3 mg/kg p.o.,45.14 ± 43.26 fold-change vs. RD+Veh
same,COL3A1 liver mRNA expression,[2]; 0.3 mg/kg p.o.,12.38 ± 9.89 fold-change vs. RD+Veh
same,COX-2 liver mRNA expression,[2]; 0.3 mg/kg p.o.,8.60 ± 4.94 fold-change vs. RD+Veh
same,EDN1 liver mRNA expression,[2]; 0.3 mg/kg p.o.,1.08 ± 0.33 fold-change vs. RD+Veh
same,EDNRA liver mRNA expression,[2]; 0.3 mg/kg p.o.,3.66 ± 2.05 fold-change vs. RD+Veh
same,EDNRB liver mRNA expression,[2]; 0.3 mg/kg p.o.,1.60 ± 0.42 fold-change vs. RD+Veh
same,FN1 liver mRNA expression,[2]; 0.3 mg/kg p.o.,1.79 ± 0.76 fold-change vs. RD+Veh
same,FOXP3 liver mRNA expression,[2]; 0.3 mg/kg p.o.,2.85 ± 1.40 fold-change vs. RD+Veh
same,IL1β liver mRNA expression,[2]; 0.3 mg/kg p.o.,1.33 ± 0.37 fold-change vs. RD+Veh
same,IL2 liver mRNA expression,[2]; 0.3 mg/kg p.o.,2.98 ± 1.16 fold-change vs. RD+Veh
same,IL6 liver mRNA expression,[2]; 0.3 mg/kg p.o.,2.43 ± 1.89 fold-change vs. RD+Veh
same,LGALS3 liver mRNA expression,[2]; 0.3 mg/kg p.o.,63.90 ± 24.46 fold-change vs. RD+Veh
same,MCP1 liver mRNA expression,[2]; 0.3 mg/kg p.o.,7.70 ± 6.93 fold-change vs. RD+Veh
same,PAI-1 liver mRNA expression,[2]; 0.3 mg/kg p.o.,4.91 ± 1.83 fold-change vs. RD+Veh
same,RAGE liver mRNA expression,[2]; 0.3 mg/kg p.o.,1.99 ± 1.10 fold-change vs. RD+Veh
same,SNAI1 liver mRNA expression,[2]; 0.3 mg/kg p.o.,2.05 ± 2.05 fold-change vs. RD+Veh
same,SNAI2 liver mRNA expression,[2]; 0.3 mg/kg p.o.,2.28 ± 1.03 fold-change vs. RD+Veh
same,TGFβ1 liver mRNA expression,[2]; 0.3 mg/kg p.o.,4.06 ± 1.62 fold-change vs. RD+Veh
same,TGFβ3 liver mRNA expression,[2]; 0.3 mg/kg p.o.,1.73 ± 0.80 fold-change vs. RD+Veh
same,TLR4 liver mRNA expression,[2]; 0.3 mg/kg p.o.,3.89 ± 1.45 fold-change vs. RD+Veh
same,TNFα liver mRNA expression,[2]; 0.3 mg/kg p.o.,4.39 ± 0.96 fold-change vs. RD+Veh
same,αSMA liver mRNA expression,[2]; 0.3 mg/kg p.o.,4.64 ± 4.05 fold-change vs. RD+Veh
same,CD4 liver mRNA expression,[2]; 1.0 mg/kg p.o.,1.33 ± 0.66 fold-change vs. RD+Veh
same,COL1A1 liver mRNA expression,[2]; 1.0 mg/kg p.o.,9.00 ± 6.03 fold-change vs. RD+Veh
same,COL3A1 liver mRNA expression,[2]; 1.0 mg/kg p.o.,3.49 ± 2.11 fold-change vs. RD+Veh
same,COX-2 liver mRNA expression,[2]; 1.0 mg/kg p.o.,6.14 ± 3.84 fold-change vs. RD+Veh
same,EDN1 liver mRNA expression,[2]; 1.0 mg/kg p.o.,0.99 ± 0.28 fold-change vs. RD+Veh
same,EDNRA liver mRNA expression,[2]; 1.0 mg/kg p.o.,2.13 ± 1.20 fold-change vs. RD+Veh
same,EDNRB liver mRNA expression,[2]; 1.0 mg/kg p.o.,1.58 ± 0.31 fold-change vs. RD+Veh
same,FN1 liver mRNA expression,[2]; 1.0 mg/kg p.o.,1.06 ± 0.22 fold-change vs. RD+Veh
same,FOXP3 liver mRNA expression,[2]; 1.0 mg/kg p.o.,1.39 ± 0.43 fold-change vs. RD+Veh
same,IL1β liver mRNA expression,[2]; 1.0 mg/kg p.o.,1.18 ± 0.45 fold-change vs. RD+Veh
same,IL2 liver mRNA expression,[2]; 1.0 mg/kg p.o.,1.85 ± 1.16 fold-change vs. RD+Veh
same,IL6 liver mRNA expression,[2]; 1.0 mg/kg p.o.,0.58 ± 0.22 fold-change vs. RD+Veh
same,LGALS3 liver mRNA expression,[2]; 1.0 mg/kg p.o.,50.04 ± 15.84 fold-change vs. RD+Veh
same,MCP1 liver mRNA expression,[2]; 1.0 mg/kg p.o.,4.23 ± 1.50 fold-change vs. RD+Veh
same,PAI-1 liver mRNA expression,[2]; 1.0 mg/kg p.o.,4.93 ± 2.25 fold-change vs. RD+Veh
same,RAGE liver mRNA expression,[2]; 1.0 mg/kg p.o.,1.14 ± 0.36 fold-change vs. RD+Veh
same,SNAI1 liver mRNA expression,[2]; 1.0 mg/kg p.o.,1.30 ± 1.21 fold-change vs. RD+Veh
same,SNAI2 liver mRNA expression,[2]; 1.0 mg/kg p.o.,1.15 ± 0.42 fold-change vs. RD+Veh
same,TGFβ1 liver mRNA expression,[2]; 1.0 mg/kg p.o.,2.87 ± 1.14 fold-change vs. RD+Veh
same,TGFβ3 liver mRNA expression,[2]; 1.0 mg/kg p.o.,1.20 ± 0.54 fold-change vs. RD+Veh
same,TLR4 liver mRNA expression,[2]; 1.0 mg/kg p.o.,3.63 ± 0.90 fold-change vs. RD+Veh
same,TNFα liver mRNA expression,[2]; 1.0 mg/kg p.o.,3.67 ± 2.21 fold-change vs. RD+Veh
same,αSMA liver mRNA expression,[2]; 1.0 mg/kg p.o.,1.75 ± 1.34 fold-change vs. RD+Veh
same,CD4 liver mRNA expression,[2]; 5.0 mg/kg p.o.,2.60 ± 1.97 fold-change vs. RD+Veh
same,COL1A1 liver mRNA expression,[2]; 5.0 mg/kg p.o.,25.20 ± 23.86 fold-change vs. RD+Veh
same,COL3A1 liver mRNA expression,[2]; 5.0 mg/kg p.o.,7.26 ± 6.59 fold-change vs. RD+Veh
same,COX-2 liver mRNA expression,[2]; 5.0 mg/kg p.o.,13.87 ± 22.12 fold-change vs. RD+Veh
same,EDN1 liver mRNA expression,[2]; 5.0 mg/kg p.o.,1.09 ± 0.51 fold-change vs. RD+Veh
same,EDNRA liver mRNA expression,[2]; 5.0 mg/kg p.o.,3.04 ± 2.38 fold-change vs. RD+Veh
same,EDNRB liver mRNA expression,[2]; 5.0 mg/kg p.o.,2.49 ± 2.19 fold-change vs. RD+Veh
same,FN1 liver mRNA expression,[2]; 5.0 mg/kg p.o.,1.51 ± 0.74 fold-change vs. RD+Veh
same,FOXP3 liver mRNA expression,[2]; 5.0 mg/kg p.o.,3.57 ± 1.87 fold-change vs. RD+Veh
same,IL1β liver mRNA expression,[2]; 5.0 mg/kg p.o.,1.32 ± 0.62 fold-change vs. RD+Veh
same,IL2 liver mRNA expression,[2]; 5.0 mg/kg p.o.,3.33 ± 2.66 fold-change vs. RD+Veh
same,IL6 liver mRNA expression,[2]; 5.0 mg/kg p.o.,1.59 ± 1.33 fold-change vs. RD+Veh
same,LGALS3 liver mRNA expression,[2]; 5.0 mg/kg p.o.,67.63 ± 53.87 fold-change vs. RD+Veh
same,MCP1 liver mRNA expression,[2]; 5.0 mg/kg p.o.,5.47 ± 2.52 fold-change vs. RD+Veh
same,PAI-1 liver mRNA expression,[2]; 5.0 mg/kg p.o.,5.06 ± 3.07 fold-change vs. RD+Veh
same,RAGE liver mRNA expression,[2]; 5.0 mg/kg p.o.,1.73 ± 0.67 fold-change vs. RD+Veh
same,SNAI1 liver mRNA expression,[2]; 5.0 mg/kg p.o.,2.32 ± 1.38 fold-change vs. RD+Veh
same,SNAI2 liver mRNA expression,[2]; 5.0 mg/kg p.o.,1.68 ± 0.79 fold-change vs. RD+Veh
same,TGFβ1 liver mRNA expression,[2]; 5.0 mg/kg p.o.,3.96 ± 2.80 fold-change vs. RD+Veh
same,TGFβ3 liver mRNA expression,[2]; 5.0 mg/kg p.o.,1.87 ± 0.71 fold-change vs. RD+Veh
same,TLR4 liver mRNA expression,[2]; 5.0 mg/kg p.o.,3.90 ± 1.30 fold-change vs. RD+Veh
same,TNFα liver mRNA expression,[2]; 5.0 mg/kg p.o.,3.80 ± 1.84 fold-change vs. RD+Veh
same,αSMA liver mRNA expression,[2]; 5.0 mg/kg p.o.,3.17 ± 2.57 fold-change vs. RD+Veh
